{"source": "paper PMC9655717", "about": "“New Molecules of Diterpene Origin with Inhibitory Properties toward α-Glucosidase” (International Journal of Molecular Sciences, 2022)", "key": {"[1]": {"molecular_target": "T1, yeast α-GLy (α-glucosidase, Sigma G0660) (Saccharomyces cerevisiae, UniProt P53341)", "T1 construct": "purchased Sigma G0660", "T1 sequence (P53341 whole entry)": "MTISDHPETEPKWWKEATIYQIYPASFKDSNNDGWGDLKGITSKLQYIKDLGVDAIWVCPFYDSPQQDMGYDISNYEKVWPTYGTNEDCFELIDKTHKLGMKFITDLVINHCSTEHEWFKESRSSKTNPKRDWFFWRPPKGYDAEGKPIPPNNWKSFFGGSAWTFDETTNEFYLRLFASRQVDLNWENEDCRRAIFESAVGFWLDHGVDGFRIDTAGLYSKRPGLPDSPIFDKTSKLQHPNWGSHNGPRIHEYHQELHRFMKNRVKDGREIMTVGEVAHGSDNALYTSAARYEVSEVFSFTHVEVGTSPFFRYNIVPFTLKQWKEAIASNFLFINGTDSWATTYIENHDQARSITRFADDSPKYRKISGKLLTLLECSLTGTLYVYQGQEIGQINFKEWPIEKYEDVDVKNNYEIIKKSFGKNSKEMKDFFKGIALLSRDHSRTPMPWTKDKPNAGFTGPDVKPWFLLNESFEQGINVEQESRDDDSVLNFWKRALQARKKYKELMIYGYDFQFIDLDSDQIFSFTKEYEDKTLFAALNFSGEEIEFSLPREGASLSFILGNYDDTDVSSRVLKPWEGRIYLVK", "test": "biochemical", "type": "biochemical", "conditions": "yeast α-glucosidase; for IC50: IC50 ± SE, α-glucosidase inhibition, 37°C, pH 6.8", "description": "S1. Materials and Methods […]\nglucosidase inhibition assay. α-Glucosidase enzyme inhibition assay was carried out in a 96-well microplate. The method’s principle based on the hydrolyzed reaction of 4-nitrophenyl-α-D-glucopiranoside with α-glucosidase enzyme into yellow 4- […]\np-Nitrophenyl α-D-Glucoside a- Gl ucosidas e α-D-Glucose + p- Nitrophenol α-Glucosidase inhibitory activity assay was performed following the modified method of Pistia Brueggeman and Hollingsworth with slight modification. Quinopimaric […]\nconcentrations of 256, 64, 16, 4 and 1 µg/mL. In a 96-well plate, a reaction mixture containing 20 μL of phosphate buffer (100 mM; pH 6.8), 20 μL of α-glucosidase (0.3 U/mL, Sigma G0660) (this concentration was determined by a series of α-glucosidase […]\nlinearity between the enzyme concentration and the absorbance of yellow color mixture after reaction which was approximately 5-fold higher than the back ground and at least […]\nconcentrations was pre-incubated for 10 min at 37°C. Then 20 μL of […] p-nitrophenyl α-D-glucopyranoside (Sigma N1377) was added to the mixture as a substrate. After further incubation at 37°C for 30 min, the reaction was stopped by adding 80 μL of 0.1 […]\nsolution were prepared using the phosphate buffer […]; pH 6.8. […]\nas a positive control and water as negative control. The yellow color produced was quantitated by colorimetric analysis and reading the absorbance at 410 nm. Each experiment was performed in triplicates, along with appropriate blanks. The solvent DMSO was use as negative control to evaluate its effect on α-glucosidase activity. […]\nor substrate in negative control. Back ground was determined by volume of buffer as […]\nThe % inhibition has been obtained using the formula:\n% inhibition = {Absorbance (control) –Absorbance (sample)}/Absorbance (control) IC50 value is defined as the concentration of samples inhibiting 50% of α-glucosidase activity under the stated assay conditions. […]"}, "[2]": {"test": "DPPH radical scavenging assay", "conditions": "DPPH 0.1 mM in methanol, 25°C, 30 min", "description": "DPPH radical scavenging assay as described by Ha. The hydrogen atom donating ability of the plant extractives was determined by the decolorization of methanol solution of 2,2-diphenyl-1-picrylhydrazyl (DPPH). DPPH produces purple color in methanol solution and fades to shades of yellow color in the presence of antioxidants. […]\nDPPH (0.1 mM) was diluted in methanol. 200 μL of this solution was added to 1.3 μL of various concentrations of compounds in DMSO (256.0, 64.0, 16.0, and 4.0 μg/mL). The mixture was performed by a 96-well plate at 25 °C in 30 min. Then, absorbance was determined by Epoch™ Microplate Spectrophotometer (at 517 nm). The percentage of DPPH quenching activity was computed by the following formula:\nInhibitory percentage SC (%) = [(Ao - A1)/Ao] × 100. where AO was defined as the absorbance of control reaction, and A1 represented for the absorbance in the presence of test or standard sample. Each experiment was repeated three times. Quercetin was used as a reference compound. […]"}, "MTT cytotoxicity assay": {"test": "MTT cytotoxicity assay", "conditions": "human", "description": "The cytotoxic activity of compounds was evaluated against four cancer cell lines KB, Hep-G2, Lu-1 and MCF-7, using colorimetric MTT assay. […]\nMTT assay was used to determine the cytotoxic activity of compounds with human cancer cell lines acquired from the American Type Culture Collection (ATCC): epidermoid carcinoma (KB, ATCC number CCL-17), hepatocellular carcinoma (HepG2, ATCC number HB-8065), lung adenocarcinoma LU-1 (ATCC number HTB - 57TM), breast adenocarcinoma MCF-7 (ATCC number HTB - 22TM. Cells were cultured in medium DMEM supplemented with 10% Fetal bovine serum (FBS), 1% Penicillin and Streptomycin and 1% L-glutamine, under a humidified atmosphere of 5% CO2 at 37°C.\nCompounds were dissolved in DMSO at 40 mg/mL and a series of dilutions for each compound was prepared to final concentrations of 256, 64, 16, 4 and 1 μg/mL. Cells were separated with trypsin and seeded in each well with 3 x10^4 cells per ml and were treated with sample different concentrations on 96-well plates. Untreated cells represented the controls. After 72h of treatment, an MTT solution (10 μl, 5 mg/mL) of phosphate buffer was added to each well for 4 h until intracellular purple formazan crystals are visible. Remove MTT and add DMSO solution (100 μL). The optical density of the solution was determined by Epoch™ Microplate Spectrophotometer at 540 nm. The inhibition ratio was calculated based on the optical densities from the three replicate […]\n(§1) are evaluated to have cytotoxic activity."}, "[3]": {"system": "Lactobacillus fermentum (N4)", "test": "Antimicrobial broth microdilution", "type": "cell-based", "conditions": "L. fermentum", "description": "(§2) Table S2. The result of antimicrobial tests of compounds 38, 45, 48 and 50.\n(§3) Gram (+) strains Gram (-) strains Fungi\n(§4) Compound Values (µg/ml) S. aureus B. L. S. E. P. C. subtilis fermentum enterica coli aeruginosa albican\n(§5) The antimicrobial activity was determined by broth microdilution method as reported by. Broth dilution testing is one of the common methods used for determination of the MICs and IC50. The compounds are examined for visible bacterial growth as evidenced by turbidity. […]\n(§6) S1.5. In vitro antimicrobial activity study of compounds 38, 45, 48 and 50 The Gram-positive bacteria: Bacillus subtilis (ATCC 6633), Lactobacillus fermentum (N4), Staphylococcus aureus (ATCC 13709); Gram -negative bacteria: Escherichia coli (ATCC 25922), Pseudomonas aeruginosa (ATCC 15442), Salmonella enterica; Yeast: Candida albicans (ATCC 10231) were obtained from American Type Culture Collection. The bacterial […]\n(§7) Sabourand 2% dextrose broth, were purchased from Merck. […]\n(§8) remaining at –80 0 C. Before assay, they were activated by culture medium and, adjusted the concentration to 5x10^5 CFU/mL. 10 μL of each concentration of each test […]\n(§9) further incubated at 37 °C within 16-24h. The experiment was triplicated. Positive […]\n(§10) medium without bacteria as a negative control. Ampicillin was used as a reference […]\n(§11) inhibiting 50% the visible growth of the tested microorganisms. MIC, IC50 values are typically expressed as molar concentration. […]\n(§12) treated with sample different concentrations on 96-well plates. Untreated cells represented the controls. […]\n(§13) crystals are visible. Remove MTT and add DMSO solution (100 μL). The optical density […]\nas §1"}, "[4]": {"system": "Staphylococcus aureus (ATCC 13709)", "test": "Antimicrobial broth microdilution", "type": "cell-based", "conditions": "ATCC13709, S. aureus", "description": "as §2, §3, §4, §5, §6, §7, §8, §9, §10, §11, §12, §13, §1"}, "[5]": {"system": "Pseudomonas aeruginosa (ATCC 15442)", "test": "Antimicrobial broth microdilution", "type": "cell-based", "conditions": "ATCC15442, P. aeruginosa", "description": "as §2, §3, §4, §5, §6, §7, §8, §9, §10, §11, §12, §13, §1"}, "[6]": {"system": "Bacillus subtilis (ATCC 6633)", "test": "Antimicrobial broth microdilution", "type": "cell-based", "conditions": "ATCC6633, B. subtilis", "description": "as §2, §3, §4, §5, §6, §7, §8, §9, §10, §11, §12, §13, §1"}, "[7]": {"system": "Candida albicans (ATCC 10231)", "test": "Antimicrobial broth microdilution", "type": "cell-based", "conditions": "ATCC10231, C. albican", "description": "as §2, §3, §4, §5, §6, §7, §8, §9, §10, §11, §12, §13, §1"}, "[8]": {"system": "Escherichia coli (ATCC 25922)", "test": "Antimicrobial broth microdilution", "type": "cell-based", "conditions": "ATCC25922, E. coli", "description": "as §2, §3, §4, §5, §6, §7, §8, §9, §10, §11, §12, §13, §1"}, "Salmonella enterica": {"system": "Salmonella enterica", "test": "Antimicrobial broth microdilution", "type": "cell-based", "conditions": "S. enterica", "description": "as §2, §3, §4, §5, §6, §7, §8, §9, §10, §11, §12, §13, §1"}}}
{"smiles": "Cc1[nH]c2c3c(c(O)cc2c1C#N)[C@H]1C[C@@H]2[C@@]4(C)CCC[C@@](C)(C(=O)O)[C@@H]4CC[C@@]32C=C1C(C)C", "note": "[Compound 44, 1′-Cyano-1-hydroxy-13-isopropyl-7,10a,2′-trimethyl-5,6,6b,7,8,9,10,10a,10b,11,12,13-dodecahydro-12,4b-ethenophenanthro [2,1-g]indole-7-carboxylic acid]", "values": [{"measurement": "IC50", "setting": "[1]", "result": "68220 ± 30", "unit": "nM"}, {"measurement": "α-GLy inhibitory activity, in words", "setting": "[1]", "result": "very good activity"}, {"measurement": "melting point", "result": "127 to 129", "unit": "°C"}]}
{"smiles": "C#CCOC(=O)C1(C)CCCC2(C)C1CCC13C=C(C(C)C)C(CC12)c1c(O)cc2c(C(=O)OCC)c(C)[nH]c2c13", "note": "(stereo not drawn) [Compound 46, Ethyl 7-propynyl 1-hydroxy-13-isopropyl-7,10a,2′-trimethyl-5,6,6b,7,8,9,10,10a,10b, 11,12,13-dodecahydro-12,4b-ethenophenanthro [2,1-g]indole-7,1′-dicarboxylate]", "values": [{"measurement": "IC50", "setting": "[1]", "result": "> 255000", "unit": "nM"}, {"measurement": "melting point", "result": "98 to 100", "unit": "°C"}]}
{"smiles": "O=c1c(O)c(-c2ccc(O)c(O)c2)oc2cc(O)cc(O)c12", "note": "[Quercetin, reference compound]", "values": [{"measurement": "IC50 values, antioxidant test (DPPH)", "setting": "[2]", "result": "8.01 ± 0.15", "unit": "µg/mL"}]}
{"smiles": "CCOC(=O)c1c(C)[nH]c2c3c(c(O)cc12)C1CC2C3(C=C1C(C)C)CCC1C(C)(C(=O)O)CCCC12C", "note": "(stereo not drawn) [Compound 42, 1-Hydroxy-13-isopropyl-1′-(ethoxycarbonyl)-7,10a,2′-trimethyl-5,6,6b,7,8,9,10,10a, 10b,11,12,13-dodecahydro-12,4b-ethenophenanthro-[2,1-g]indole-7-carboxylic acid]", "values": [{"measurement": "IC50", "setting": "[1]", "result": "2520 ± 340", "unit": "nM"}, {"measurement": "α-GLy inhibitory activity, in words", "setting": "[1]", "result": "very good activity"}, {"measurement": "melting point", "result": "131 to 133", "unit": "°C"}]}
{"smiles": "CC(C)C1=CC23CCC4C(C)(C(=O)O)CCCC4(C)C2CC1c1c(OCCC#N)ccc(OCCC#N)c13", "note": "(stereo not drawn) [Compound 50, 1,4-Bis(2′-cyanoethoxy)-13-isopropyl-7,10a-dimethyl-6,6a,7,8,9,10,10a,10b,11,12-decahydro-5H-4b,12-ethenochrysene-7-carboxylic acid]", "values": [{"measurement": "IC50 at 72 h", "setting": "MTT cytotoxicity assay; Hep-G2 hepatocellular carcinoma cells (ATCC HB-8065)", "result": "110 ± 2.6", "unit": "µg/mL"}, {"measurement": "IC50 at 72 h", "setting": "MTT cytotoxicity assay; KB epidermoid carcinoma cells (ATCC CCL-17)", "result": "57.3 ± 1.2", "unit": "µg/mL"}, {"measurement": "IC50 at 72 h", "setting": "MTT cytotoxicity assay; Lu-1 lung adenocarcinoma cells (ATCC HTB-57)", "result": "69.8 ± 1.5", "unit": "µg/mL"}, {"measurement": "IC50 at 72 h", "setting": "MTT cytotoxicity assay; MCF-7 breast adenocarcinoma cells (ATCC HTB-22)", "result": "158 ± 4", "unit": "µg/mL"}, {"measurement": "IC50", "setting": "[1]", "result": "230 ± 10", "unit": "nM"}, {"measurement": "IC50 values, antioxidant test (DPPH)", "setting": "[2]", "result": "105.50 ± 2.2", "unit": "µg/mL"}, {"measurement": "IC50", "setting": "[3]", "result": "116 ± 6.93", "unit": "µg/mL"}, {"measurement": "MIC", "setting": "[3]", "result": "> 256", "unit": "µg/mL"}, {"measurement": "IC50", "setting": "[4]", "result": "11 ± 0.83", "unit": "µg/mL"}, {"measurement": "MIC", "setting": "[4]", "result": 64, "unit": "µg/mL"}, {"measurement": "IC50", "setting": "[5]", "result": "> 256", "unit": "µg/mL"}, {"measurement": "MIC", "setting": "[5]", "result": "> 256", "unit": "µg/mL"}, {"measurement": "IC50", "setting": "[6]", "result": "11.3 ± 0.77", "unit": "µg/mL"}, {"measurement": "MIC", "setting": "[6]", "result": 64, "unit": "µg/mL"}, {"measurement": "IC50", "setting": "[7]", "result": "> 256", "unit": "µg/mL"}, {"measurement": "MIC", "setting": "[7]", "result": "> 256", "unit": "µg/mL"}, {"measurement": "IC50", "setting": "[8]", "result": "> 256", "unit": "µg/mL"}, {"measurement": "MIC", "setting": "[8]", "result": "> 256", "unit": "µg/mL"}, {"measurement": "IC50", "setting": "Salmonella enterica", "result": "> 256", "unit": "µg/mL"}, {"measurement": "MIC", "setting": "Salmonella enterica", "result": "> 256", "unit": "µg/mL"}, {"measurement": "melting point", "result": "157 to 159", "unit": "°C"}]}
